# Measurements from patent US12480166B2, “Multiplexed fuel analysis” (ANDE Corporation, priority 2018, dated 2025).
# Experiments:
# [1] = system: filamentous fungi 18S, T3; test: General 6-plex Fuel Assay (multiplexed PCR after centrifugation/DNaseI processing) of commercial fleet diesel samples before and after biocide treatment; format: cell-based; conditions: real-world diesel samples from commercial fleets, after vs before biocide treatment; FIG. 41
# Description: (§1) The approach relies in part on centrifugation to allow phase separation and to separate the intact microbial cells and cellular debris from the exposed, extracellular genomic DNA material. The extracellular material is then selectively degraded with addition of an enzyme, DNaseI. Note than DNA degradation enzymes in addition to DNAseI can be used in this approach-many such enzymes are available including restriction enzymes (particularly frequent cutters), other endonucleases, and exonucleases. DNA may also be degraded using physical methods.
# (§2) Mock fuel samples were prepared by adding 200 μl of buffer (e.g. 1×PBS, or a preferred solution to prevent cells from lysing while providing an optimal chemical environment for downstream processing) to 800 μl of diesel fuel (previously determined to be negative for microbial contamination) and spiked with 500 ng of purified Bacillus DNA and live Pseudomonas cells (approximately […]). This allowed clear distinction between DNA present extracellularly and intracellularly. The resulting sample was mixed by multiple inversions and then subjected to centrifugation at 20,000×g for 2 minutes to pelletize the live Pseudomonas cells. […]
# (§3) Biocide performance was also measured using an ATP assay for measurement of total microbial load. […]
# general bacteria 16S,T1 = test: as above; format: cell-based; conditions: real-world diesel samples from commercial fleets, after vs before biocide treatment; FIG. 41
# Description: as §1, §2, §3
smiles,measurement,setting,value
"N#CSCSC#N [biocide, methylenebisthiocyanate]","filamentous fungi 18S, T3 signal after biocide treatment",[1],loss
same,"decline in general bacteria 16S,T1 signal after biocide treatment","general bacteria 16S,T1",approximately 75%
